Laboratory results reported in EP4772514A1, “MACROCYCLIC COMPOUNDS, PREPARATION METHOD THEREFOR, AND USE THEREOF” (Genfleet Therapeutics (Shanghai) Inc., priority 2023, dated 2025).
pIC50: −log10 of the molar value.

Key:
Assay type in all cases: cell-based
[1] = system: p-ERK; experiment: Cell p-ERK assay (HTRF, Advance ERK phospho-T202/Y204 kit) in NCI-H441 cells; settings: Homo sapiens, NCI-H441, 3 h, NCI-H441, human non-small cell lung cancer cell strain, KRAS G12V mutation; 3 h compound incubation
Summary of the method: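 Phospho-ERK (T202/Y204) measured by HTRF in lysates of AsPC-1 (KRAS G12D) or NCI-H441 (KRAS G12V) cells after 3 h compound exposure at 37 °C in RPMI-1640 + 10% FBS, 0.1% DMSO. Inhibition normalised to DMSO and blank wells; IC50 by four-parameter fit.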

[2] = system: p-ERK; experiment: Cell p-ERK assay (HTRF, Advance ERK phospho-T202/Y204 kit) in AsPC-1 cells; settings: ASPC1; AsPC-1, human pancreatic cancer cell strain, KRAS G12D mutation; 3 h compound incubation
Procedure: AsPC-1 cells were purchased from ATCC, Cat. No. CRL-1682; NCI-H441 cells were purchased from ATCC, Cat. No. HTB-174; RPMI-1640 medium was purchased from Gibco, Cat. No. 11875-093; FBS was purchased from Gibco, Cat. No. 10099-141C; penicillin/streptomycin double-antibiotic solution (PS) was purchased from Gibco, Cat. No. 15140-122; trypsin (containing EDTA) was purchased from Gibco, Cat. No. 25200-072; DMSO was purchased from VWRAMRESCO, Cat. No. 0231-500ML; 96-well cell culture plates were purchased from Corning, Cat. No. 3599; white-bottomed, opaque 96-well plates were purchased from Cisbio, Cat. No. 66PL96025; Advance ERK phospho-T202/Y204 kit was purchased from Cisbio, Cat. No. 64AERPEH; cell counter was purchased from CHEMOMETEC, model: NC-200; microplate reader was purchased from PerkinElmer, model: EnVision.
AsPC-1, a human pancreatic cancer cell strain endogenously containing a KRAS^G12D mutation, was cultured in a complete medium containing RPMI-1640 + 10% FBS + 1% PS. NCI-H441, a human non-small cell lung cancer cell strain endogenously containing a KRAS^G12V mutation, was cultured in a complete medium containing RPMI-1640 + 10% FBS + 1% PS.
The cells were digested with trypsin (containing EDTA), collected in their corresponding complete media, and counted. The density of the cell suspensions was adjusted with their corresponding complete media, and AsPC-1 cells (10000 cells/well) or NCI-H441 cells (20000 cells/well) were seeded into a 96-well cell culture plate, with the volume of the medium in each well being 80 µL. The cell culture plate was incubated in an incubator at 37 °C with 5% CO2 overnight. A series of 3.16-fold gradient dilutions of a 1000× compound stock solution were prepared with DMSO, and then diluted 200-fold with the complete medium described above to give 5× compound stock solutions. On the day after cell seeding, 20 µL of the 5× compound stock solution was added to each cell culture well. As a result, the final concentration of the compound in the cell culture well became 1×, and the DMSO content in the well was 0.1%. In addition to the compound-treated wells described above, cell-containing DMSO control wells were also set. A complete medium containing 0.5% DMSO was added at 20 µL/well. After the mixture was well mixed, the culture plate was incubated in the incubator at 37 °C with 5% CO2 for another 3 h. The medium was then removed from the culture wells, and 50 µL of cell lysis buffer (from Advance ERK phospho-T202/Y204 kit) was added to each well. The mixture was well mixed, incubated for 30 min, and then transferred to a white-bottomed, opaque 96-well assay plate at 16 µL/well, and separately, 16 µL of cell lysis buffer was added to additional wells (serving as blank wells) in the assay plate. After the transfer was completed, 4 µL of p-ERK HTRF antibody mixture (from Advance ERK phospho-T202/Y204 kit) was added to each well of the assay plate, followed by a 4-hour incubation. The HTRF signal values (RLU) were then measured using a microplate reader, and the inhibition rate of the compound against p-ERK levels was calculated as follows: IR(%) = (RLUDMSO - RLUcompound)/(RLUDMSO - RLUblank) × 100%, where RLUDMSO is the average HTRF signal value from the DMSO control well samples, RLU is the average HTRF signal value from the blank well samples, and RLUcompound is the HTRF signal value from the compound-treated well samples. Using an XLfit software, the IR(%) values were plotted against the logarithm of the compound concentrations, and the dose-response curves were fitted using the four-parameter method to calculate the IC50 values.

[3] = system: NCI-H441 cells; experiment: 3D cell proliferation assay (CellTiter Glo-3D) in NCI-H441 cells; settings: Homo sapiens, NCI-H441, 120 h, NCI-H441, human lung cancer cell strain, KRAS G12V mutation; 3D culture, 2% FBS, 5 days; read-out: H441 AP IC50
Summary of the method: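 After a 5-day exposure at 37 °C to 3.16-fold serial dilutions (final DMSO 0.1%) in 2% FBS RPMI-1640, ATP luminescence (CellTiter-Glo 3D) was read. Cells were AsPC-1 (KRAS G12D) or NCI-H441 (KRAS G12V), 800 per well; inhibition used DMSO and medium-only controls, with four-parameter curve fitting giving IC50.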

[4] = system: AsPC-1 cells; experiment: 3D cell proliferation assay (CellTiter Glo-3D) in AsPC-1 cells; settings: ASPC1, 120 h; AsPC-1, human pancreatic cancer cell strain, KRAS G12D mutation; 3D culture, 2% FBS, 5 days; read-out: AsPC-1 AP IC50
Text: MIA PaCa-2 cells were purchased from ATCC, Cat. No. CRL-1420; AsPC-1 cells were purchased from ATCC, Cat. No. CRL-1682; NCI-H441 cells were purchased from ATCC, Cat. No. HTB-174; NCI-H1975 cells were purchased from ATCC, Cat. No. CRL-5908; DMEM medium was purchased from Gibco, Cat. No. 11995-065; RPMI-1640 medium was purchased from Gibco, Cat. No. 11875-093; FBS was purchased from Gibco, Cat. No. 10099-141C; penicillin/streptomycin double-antibiotic solution (PS) was purchased from Gibco, Cat. No. 15140-122; Horse serum was purchased from Gibco, Cat. No. 16050130; trypsin (containing EDTA) was purchased from Gibco, Cat. No. 25200-072; DMSO was purchased from VWRAMRESCO, Cat. No. 0231-500ML; 384-well cell culture plates were purchased from Corning, Cat. No. 3830; white-bottomed, opaque 384-well assay plates were purchased from Corning, Cat. No. 3570; CellTiter Glo-3D kit was purchased from Promega, Cat. No. G9683; cell counter was purchased from CHEMOMETEC, model: NC-200; microplate reader was purchased from PerkinElmer, model: EnVision.
MIA PaCa-2, a human pancreatic cancer cell strain endogenously containing a KRAS^G12Cmutation, was cultured in a complete medium containing DMEM + 10% FBS + 2.5% Horse serum + 1% PS. AsPC-1, a human pancreatic cancer cell strain endogenously containing a KRAS^G12D mutation, was cultured in a complete medium containing RPMI-1640 + 10% FBS + 1% PS. NCI-H441 cells, a human lung cancer cell strain endogenously containing a KRAS^G12V mutation, were cultured in a complete medium containing RPMI-1640 + 10% FBS + 1% PS. NCI-H1975, a KRAS wild-type human lung cancer cell strain whose cell proliferation […], was cultured in a complete medium containing RPMI-1640 + 10% FBS + 1% PS.
The cells were digested with trypsin (containing EDTA), collected in their respective low-serum complete media containing 2% FBS (for MIA Paca-2 cell culture: DMEM + 2% FBS + 0.5% Horse serum + 1% PS), and counted. After the cell density was adjusted as required, MIA PaCa-2 cells (200 cells/well), AsPC-1 cells (800 cells/well), NCI-H441 cells (800 cells/well), or NCI-H1975 cells (400 cells/well) were seeded into a 384-well cell culture plate, with the volume of the medium in each well being 45 µL. The cell culture plate was incubated in an incubator at 37 °C with 5% CO2 overnight. A series of 3.16-fold gradient dilutions of a 1000× compound stock solution were prepared with DMSO, and then diluted 100-fold with the complete medium containing 2% FBS described above to give 10× compound stock solutions. On the day after cell seeding, 5 µL of the 10× compound stock solution was added to each cell culture well. As a result, the final concentration of the compound in the cell culture well became 1×, and the DMSO content in the well was 0.1%. In addition to the compound-treated wells described above, cell-containing DMSO control wells (with 5 µL of the complete medium containing 1% DMSO added to each well) and cell-free medium control wells (containing 50 µL of the complete medium with 2% FBS) were also set. The culture plate was incubated in an incubator at 37 °C with 5% CO2 for another 5 days, and then 30 µL of CellTiter-Glo working solution was added to each well. The mixture was well mixed, incubated for 30 min, left to stand at room temperature for 30 min, and then transferred to a white-bottomed, opaque 384-well assay plate at 40 µL/well. The chemiluminescence values (RLU) were measured using a microplate reader, and the cell proliferation inhibition rate for each well was calculated: IR(%) = (RLUDMSO - RLUcompound)/(RLUDMSO - RLUblank) × 100%, where RLUDMSO is the average RLU signal value from the DMSO control well samples, RLUblank is the average RLU signal value from the medium control well samples, and RLUcompound is the RLU signal value from the compound-treated well samples. […]

pIC50 [1]	pIC50 [2]	pIC50 [3]	pIC50 [4]	SMILES
9.54	9.82	9.70	9.82	CCn1c(F)c2c(c1-c1cc(C#CCN3CCC(C#N)(CN)CC3)cnc1[C@H](C)OC)CC(C)(C)COC(=O)[C@@H]1CCCN(N1)C(=O)[C@@H](NC(=O)[C@H]1[C@H](C)[C@@H]1C)Cc1nc(cs1)/C=C/2 (atropisomer, axis not shown; (Ra)) [Compound Z145, (1r,2R,3S)-N-((4^2Z, 8^3S, 2E, 6S)-(Ra)-1^5-(5-(3-(4-(aminomethyl)-4-cyanopiperidin-1-yl)prop-1-yn-1-yl)-2-((S)-1-methoxyethy)pyridin-3-yl)-1^1-ethyl-1^2-fluoro-12,12-dimethyl-7,9-dioxo-8^1,8^2,8^3,8^4,8^5,8^6-hexahydro-1^1H-10-oxa-4(4,2)-thiazola-8(1,3)-pyridazina-1(3,4)-pyrrolacyclotridecaphan-2-en-6-yl)-2,3-dimethylcyclopropane-1-carboxamide]
8.74	8.64	8.84	8.62	CCn1nc2c(c1-c1cc(C#CCN3CCC(C#N)(CN)CC3)cnc1[C@H](C)OC)CC(C)(C)COC(=O)[C@@H]1CCCN(N1)C(=O)[C@@H](NC(=O)[C@H]1[C@H](C)[C@@H]1C)Cc1nc(cs1)/C=C/2 [Compound Z119]
6.75	6.30			CO[C@@H](C)c1ncc(C#CCN2CCS(=O)(=O)CC2)cc1-c1c2c(nn1C(C)C)/C=C/c1csc(n1)C[C@H](NC(=O)CC1CC(CO)C1)C(=O)N1CCC[C@H](N1)C(=O)OCC(C)(C)C2 (stereo partly drawn) [Compound Z39, N-((4^2Z,8^3S,2E,6S)-1^5-(5-(3-(1,1-dioxidothiomorpholino)prop-1-yn-1-yl)-2-((S)-1-methoxyethyl)pyridin-3-yl)-1^1-isopropyl-12,12-dimethyl-7,9-dioxo-8^1,8^2,8^3,8^4,8^5,8^6-hexahydro-1^1H-10-oxa-4(4,2)-thiazola-8(1,3)-pyridazina-1(3,4)-pyrrolacyclotridecaphan-2-en-6-yl)-2-(3-(hydroxymethyl)cyclobutyl)acetamide]
9.70	10.40			CCn1cc2c(c1-c1cc(C#CCN3CCC(C#N)CC3)cnc1[C@H](C)OC)CC(C)(C)COC(=O)[C@@H]1CCCN(N1)C(=O)[C@@H](NC(=O)[C@H]1[C@@H]3COC[C@@H]31)Cc1nc(co1)/C=C/2 (atropisomer, axis not shown; (Ra)) [Compound Z85, (1R,5S,6r)-N-((4^2Z,8^3S,2E,6S)-(Ra)-1^5-(5-(3-(4-cyanopiperidin-1-yl)prop-1-yn-1-yl)-2-((S)-1-methoxyethyl)pyridin-3-yl)-1^1-ethyl-12,12-dimethyl-7,9-dioxo-8^1,8^2,8^3,8^4,8^5,8^6-hexahydro-1^1H-10-oxa-4(4,2)-oxazola-8(1,3)-pyridazina-1(3,4)-pyrrolacyclotridecaphan-2-en-6-yl)-3-oxabicyclo[3.1.0]hexane-6-carboxamide]
7.14	6.72			CCn1nc2c(c1-c1cc(N3CCN(C)CC3)cnc1[C@H](C)OC)CC(C)(C)COC(=O)[C@@H]1CCCN(N1)C(=O)[C@@H](NC(=O)[C@H]1[C@H](C)[C@@H]1C)Cc1nc(cs1)/C=C/2 (single isomer, unassigned) [Compound Z4-1]
